Test results reported in ChEMBL document CHEMBL1201862, “PubChem BioAssay data set” (2004).
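Following 48 hours of exposure in 96-well plates, responses at five concentrations were used to interpolate endpoints linearly. GI50: concentration for 50% inhibition of growth.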 The source made the active and inactive calls. Rule as the data show it: active = GI50 up to about 1.1 µM and inactive = higher.

Key:
Experiment in all cases: growth of human tumour cells (NCI), 48 h
A498 = test system: A498
K562 = test system: K562
ACHN = test system: ACHN
COLO 205 = test system: COLO 205
NCI-H23 = test system: NCI-H23
OVCAR-3 = test system: OVCAR-3
CCRF-CEM = test system: CCRF-CEM
SR = test system: SR
MOLT-4 = test system: MOLT-4
NCI-H460 = test system: NCI-H460
LOX IMVI = test system: LOX IMVI
OVCAR-4 = test system: OVCAR-4
Malme-3M = test system: Malme-3M
UACC-257 = test system: UACC-257
786-0 = test system: 786-0
HOP-62 = test system: HOP-62
EKVX = test system: EKVX
HOP-92 = test system: HOP-92

| SMILES | GI50 (A498) | GI50 (K562) | GI50 (ACHN) | GI50 (COLO 205) | GI50 (NCI-H23) | GI50 (OVCAR-3) | GI50 (CCRF-CEM) | GI50 (SR) | GI50 (MOLT-4) | GI50 (NCI-H460) | GI50 (LOX IMVI) | GI50 (OVCAR-4) | GI50 (Malme-3M) | GI50 (UACC-257) | GI50 (786-0) | GI50 (HOP-62) | GI50 (EKVX) | GI50 (HOP-92) |
| --- | --- | --- | --- | --- | --- | --- | --- | --- | --- | --- | --- | --- | --- | --- | --- | --- | --- | --- |
| C=C1Cc2cc(OC)c(OC)c(OC)c2-c2ccc(SC)c(=O)cc21 | < 0.01 µM (active) | < 0.01 µM (active) | < 0.01 µM (active) | < 0.01 µM (active) | < 0.01 µM (active) | < 0.01 µM (active) | < 0.01 µM (active) | < 0.01 µM (active) | < 0.01 µM (active) | < 0.01 µM (active) | < 0.01 µM (active) | 4.26 µM (inactive) | < 0.01 µM (active) | 0.361 µM (active) | < 0.01 µM (active) | < 0.01 µM (active) | 1.55 µM (inactive) | – |
| CC1=C(/C(C)=N/NS(=O)(=O)c2ccc(C)cc2)Sc2ccccc2N1 | > 100 µM (inactive) | 37.7 µM (inactive) | > 100 µM (inactive) | 48.1 µM (inactive) | 89.3 µM (inactive) | 58.2 µM (inactive) | 32.9 µM (inactive) | 59.7 µM (inactive) | 52.7 µM (inactive) | > 100 µM (inactive) | 70.8 µM (inactive) | > 100 µM (inactive) | 77.3 µM (inactive) | 65.5 µM (inactive) | > 100 µM (inactive) | > 100 µM (inactive) | 68.7 µM (inactive) | 81.8 µM (inactive) |
| CC(C)(C)C(=O)O[C@@H]1COC2C(O)COC21 (stereo partly specified) | – | > 100 µM (inactive) | > 100 µM (inactive) | > 100 µM (inactive) | > 100 µM (inactive) | > 100 µM (inactive) | > 100 µM (inactive) | > 100 µM (inactive) | 19.7 µM (inactive) | > 100 µM (inactive) | > 100 µM (inactive) | > 100 µM (inactive) | > 100 µM (inactive) | > 100 µM (inactive) | > 100 µM (inactive) | > 100 µM (inactive) | – | > 100 µM (inactive) |
| C/C(=N\N(c1ccccc1)c1ccccc1)c1c(O)cc(C)oc1=O | > 100 µM (inactive) | 62.7 µM (inactive) | > 100 µM (inactive) | – | 40.1 µM (inactive) | – | 89.7 µM (inactive) | 56.9 µM (inactive) | 54.2 µM (inactive) | 46.5 µM (inactive) | > 100 µM (inactive) | 45.1 µM (inactive) | > 100 µM (inactive) | 47.8 µM (inactive) | > 100 µM (inactive) | > 100 µM (inactive) | > 100 µM (inactive) | 46.3 µM (inactive) |
| O=[N+]([O-])c1cccc(C2SCc3nc4ccccc4n32)c1 (stereo unspecified) | 77.6 µM (inactive) | 49.5 µM (inactive) | 62.7 µM (inactive) | > 100 µM (inactive) | 64.4 µM (inactive) | – | > 100 µM (inactive) | 82.4 µM (inactive) | 59.4 µM (inactive) | > 100 µM (inactive) | 88.3 µM (inactive) | 63.8 µM (inactive) | 54.1 µM (inactive) | 39.3 µM (inactive) | > 100 µM (inactive) | > 100 µM (inactive) | 66.2 µM (inactive) | 19 µM (inactive) |
| NC(=O)NC1C(C(N)=O)N(Cc2ccccc2)C(=O)N1Cc1ccccc1 (stereo unspecified) | – | > 100 µM (inactive) | > 100 µM (inactive) | > 100 µM (inactive) | > 100 µM (inactive) | > 100 µM (inactive) | > 100 µM (inactive) | > 100 µM (inactive) | > 100 µM (inactive) | > 100 µM (inactive) | > 100 µM (inactive) | > 100 µM (inactive) | > 100 µM (inactive) | > 100 µM (inactive) | > 100 µM (inactive) | > 100 µM (inactive) | > 100 µM (inactive) | > 100 µM (inactive) |
| Cc1cccc(C(=O)O)c1C(=O)c1cccc2ccccc12 | 88.3 µM (inactive) | 65 µM (inactive) | > 100 µM (inactive) | > 100 µM (inactive) | > 100 µM (inactive) | > 100 µM (inactive) | > 100 µM (inactive) | > 100 µM (inactive) | 33.1 µM (inactive) | > 100 µM (inactive) | > 100 µM (inactive) | > 100 µM (inactive) | > 100 µM (inactive) | > 100 µM (inactive) | > 100 µM (inactive) | > 100 µM (inactive) | > 100 µM (inactive) | – |
| N#CC1C2CCC3(CC2CCN1C(=O)c1ccccc1)OCCO3 (stereo unspecified) | > 100 µM (inactive) | > 100 µM (inactive) | > 100 µM (inactive) | > 100 µM (inactive) | > 100 µM (inactive) | > 100 µM (inactive) | > 100 µM (inactive) | > 100 µM (inactive) | > 100 µM (inactive) | > 100 µM (inactive) | > 100 µM (inactive) | > 100 µM (inactive) | > 100 µM (inactive) | > 100 µM (inactive) | > 100 µM (inactive) | > 100 µM (inactive) | > 100 µM (inactive) | > 100 µM (inactive) |
